Results: patent US6472348B1, “Pyridone derivatives and herbicides” (Kumiai Chemical Industry Co., Ltd., priority 1996, dated 2002)

Compound | melting point [°C]
Cn1c(C(F)(F)F)ccc(-c2cc(N)c(Cl)cc2F)c1=O [Compound No. 1-59, 3-(5-amino-4-chloro-2-fluorophenyl)-1-methyl-6-trifluoromethyl-2(1H)-pyridone] | 155 to 157
Cc1cc(-c2cc(O)c(Cl)cc2F)c(=O)n(C)c1C(F)(F)F [Compound No. 1-79, 3-(4-chloro-2-fluoro-5-hydroxyphenyl)-1,5-dimethyl-6-trifluoromethyl-2(1H)-pyridone] | 207 to 208
CC(=O)Sc1cc(-c2ccc(C(F)(F)F)n(C)c2=O)c(F)cc1Cl [Compound No. 1-85, 3-(5-acetylthio-4-chloro-2-fluorophenyl)-1-methyl-6-trifluoromethyl-2(1H)-pyridone] | 91 to 92
Cn1c(C(F)(F)F)ccc(-c2cc([N+](=O)[O-])c(F)cc2F)c1=O [Compound No. 1-100, 3-(2,4-difluoro-5-nitrophenyl)-1-methyl-6-trifluoromethyl-2(1H)-pyridone] | 115 to 118
Cn1c(C(F)(F)F)ccc(-c2cc3[nH]c(=O)oc3cc2Cl)c1=O [Compound No. 3-20, 3-(6-chlorobenzoxazolin-2-on-5-yl)-1-methyl-6-trifluoromethyl-2(1H)-pyridone] | 263 to 265
CSCc1cc2c(-c3ccc(C(F)(F)F)n(C)c3=O)c(F)cc(Cl)c2o1 [Compound No. 4-44, 3-(7-chloro-5-fluoro-2-methylthiomethylbenzofuran-4-yl)-1-methyl-6-trifluoromethyl-2-(1H)-pyridone] | 169 to 171
CCC(c1cc2c(-c3ccc(C(F)(F)F)n(C)c3=O)c(F)cc(Cl)c2o1)[S+](C)[O-] (stereo not shown) [Compound No. 4-57, 3-[7-chloro-5-fluoro-2-(1-methylsulfinylpropyl)benzofuran-4-yl]-1-methyl-6-trifluoromethyl-2-(1H)-pyridone] | 125 to 127
